{
  "source": "patent US20240300886A1",
  "about": "“ARYLCYCLOHEXYLAMINE DERIVATIVES AND THEIR USE IN THE TREATMENT OF PSYCHIATRIC DISORDERS” (GILGAMESH PHARMACEUTICALS, INC., priority 2021, published 2024)",
  "key": {"[1]": {"assay": "Oral bioavailability in mice, Method A (plasma and brain PK)", "assay_type": "in vivo, CD-1 mice", "conditions": "for half-life / Cmax / AUC(0-inf): male; for F: 10 mg/kg", "protocol": "Animals. Male CD-1 mice were used in these studies. Animals were randomly assigned to treatment groups and were fasted for 4 h before dosing.\nDrugs. Test compounds were dissolved in normal saline and administered intravenously (iv) or orally (po) at a dose of 10 mg/kg (calculated based on freebase) and at a volume of 5 mL/kg body weight. Compounds were tested as the racemates or pure enantiomers, as indicated.\nSample Collection and Bioanalysis. Blood samples were collected under 2,2,2-tribromoethanol anesthesia (150 mg/kg, ip) from the orbital sinus at 0.083, 0.25, 0.5, 1, 2, 4, 8 and 24 h (4 animals per time point) into microcontainers containing K2EDTA. Immediately after collection of blood, mice were euthanized by cervical dislocation and brain samples were collected at the same time points. All samples were immediately processed, flash-frozen, and stored at −70° C. until subsequent analysis. Plasma samples were separated by centrifugation of is whole blood and aliquots (50 μL) were mixed with 200 μL of internal standard solution (400 ng/mL in 1:1 v/v CH3CN:MeOH). After mixing by pipetting and centrifuging for 4 min at 6,000 rpm, 0.5 μL of each supernatant was analyzed for drug using a fit-for-purpose liquid chromatography-tandem mass spectrometry (LC-MS/MS) method, with authentic samples of each analyte used for calibration and identification. Brain samples (weight 100 mg±1 mg) were dispersed in 500 μL of internal standard solution (400 ng/mL in 4:1 v/v MeOH:water) using zirconium oxide beads (115 mg±5 mg) in The Bullet Blender® homogenizer for 30 s at speed 8. After homogenization, the samples were centrifuged for 4 min at 14,000 rpm and 0.5 μL of each supernatant was analyzed for drug using a fit-for-purpose LC-MS/MS method, with authentic samples of each analyte used for calibration and identification.\nData Analysis. The drug concentrations of samples below the lower limit of quantitation (LLOQ) were designated as zero. Pharmacokinetic data analysis was performed using noncompartmental, bolus injection or extravascular input analysis models in WinNonlin 5.2 (PharSight). Data points below LLOQ were presented as missing to improve validity of tin calculations."}, "[2]": {"test_system": "immobility time in the FST", "assay": "Forced swim test (FST) in rats", "assay_type": "in vivo, Sprague-Dawley rats", "conditions": "s.c., 23.5-h pre-treatment time", "protocol": "Disclosed compounds were tested in the forced swim test (FST) in rats with a 23.5-h pre-treatment time according to the following procedures.\nAnimals. Male Sprague-Dawley rats, aged 8-10 weeks, were used in the experiments. Animals were housed in groups of 2 under controlled temperature (22±3° C.) and relative humidity (30-70%) conditions, with 12-hour light/dark cycles, and with ad libitum food and water. All efforts were made to minimize suffering.\nDrugs and Drug Administration. Test compounds, saline vehicle, and the positive control desipramine were administered subcutaneously (s.c.), with doses calculated based on the freebase. Normal saline was used as the vehicle for compounds provided as the HCl salt, while saline acidified with 1-2 molar equivalents of HCl was used as the vehicle for compounds provided as the freebase (to form the soluble HCl salt in situ). All compounds were administered at a volume of 5 mL/kg. Test compounds and vehicle were administered 0.5 h after the start of the training swim (Swim 1) and 23.5 h before the test swim (Swim 2). […]\nBehavioral scoring was conducted by observers who were blind to the treatment groups. Animals were continuously observed during Swim 2 and the total time spent engaging in the following behaviors was recorded: immobile, swimming, and climbing. […]"}, "[3]": {"target": "serotonin transporter (SERT) (Homo sapiens (Human), UniProt P31645)", "assay": "SERT competition radioligand binding ([3H]imipramine)", "conditions": "for Ki: Human recombinant (CHO cells), 2.0 nM [3H]imipramine", "protocol": "Disclosed compounds were tested for their binding affinity at the serotonin transporter (SERT) using a competition radioligand binding assay (Eurofins Cerep). Assay conditions are described in Table 16 below."}, "[4]": {"assay": "Stability in liver microsomes (Example 21), CD-1 mouse", "assay_type": "in vitro ADME", "conditions": "male, pH 7.4, CD-1 Mouse liver microsomes, 0.5 mg/mL protein", "protocol": "General Procedure. Briefly, test compounds (final concentration 1 μM) were incubated in duplicate with liver microsomes from male animals of the indicated species (final protein concentration 0.5 mg/mL) in 50 mM sodium phosphate buffer (pH 7.4) with or without NADPH (1 mM). Total incubation volume was 500 μL. At 0, 5, 15, 30, and 60 min, aliquots of 50 μL were withdrawn, quenched with acetonitrile (150 μL), and analyzed for parent compound remaining using a fit-for-purpose LC-MS/MS method. Intrinsic clearance and half-life were calculated. Clearance values below zero were rounded to zero."}},
  "note": "Read-outs that look alike come from different tables or passages of the source.",
  "data": [
    {"compound": "CNC1(c2ccccc2Cl)CCCCC1=O", "note": "(racemic) [racemic ketamine, ketamine]", "values": [
      {"measurement": "half-life", "setting": "[1]; CD-1, mouse brain, 10 mg/kg iv, read-out: t1/2 (iv)", "result": 8.66, "unit": "min"},
      {"measurement": "Cmax", "setting": "[1]; CD-1, mouse brain, 10 mg/kg po", "result": 521, "unit": "ng/g"},
      {"measurement": "half-life", "setting": "[1]; CD-1, mouse brain, 10 mg/kg po, read-out: t1/2 (po)", "result": 12.2, "unit": "min"},
      {"measurement": "AUC(0-inf)", "setting": "[1]; CD-1, mouse plasma, 10 mg/kg iv, read-out: AUC0-inf (iv) (converted)", "result": 633, "unit": "ng·h/mL"},
      {"measurement": "half-life", "setting": "[1]; CD-1, mouse plasma, 10 mg/kg iv, read-out: t1/2 (iv)", "result": 8.46, "unit": "min"},
      {"measurement": "Cmax", "setting": "[1]; CD-1, mouse plasma, 10 mg/kg po", "result": 253, "unit": "ng/mL"},
      {"measurement": "AUC(0-inf)", "setting": "[1]; CD-1, mouse plasma, 10 mg/kg po, read-out: AUC0-inf (po) (converted)", "result": 96.8, "unit": "ng·h/mL"},
      {"measurement": "half-life", "setting": "[1]; CD-1, mouse plasma, 10 mg/kg po, read-out: t1/2 (po)", "result": 11.5, "unit": "min"},
      {"measurement": "AUC0-inf (iv)", "setting": "[1]; mouse brain, 10 mg/kg iv", "result": "97,000 ng*min/g"},
      {"measurement": "AUC0-inf (po)", "setting": "[1]; mouse brain, 10 mg/kg po", "result": "6,030 ng*min/g"},
      {"measurement": "F", "setting": "[1]; mouse brain, calculated based on brain exposure", "result": 6.2, "unit": "%"},
      {"measurement": "F", "setting": "[1]; mouse plasma", "result": 15, "unit": "%"}
    ]},
    {"compound": "N[C@]1(c2ccc(F)cc2)CCCCC1=O", "note": "[Compound 1S, (S)-2-amino-2-(4-fluorophenyl)cyclohexan-1-one]", "values": [
      {"measurement": "immobility time in the FST relative to vehicle", "setting": "[2]", "result": "reduced immobility time"}
    ]},
    {"compound": "CN[C@@]1(c2ccc(F)cc2)CCCCC1=O", "note": "[Compound 2R, (R)-2-(4-fluorophenyl)-2(methylamino)cyclohexan-1-one]", "values": [
      {"measurement": "Ki", "setting": "[3]", "result": 6.2, "unit": "µM"},
      {"measurement": "SERT binding potency relative to 2S (more potent)", "setting": "[3]; human recombinant SERT", "result": "~2", "unit": "fold"},
      {"measurement": "immobility time in the FST relative to vehicle", "setting": "[2]", "result": "reduced immobility time"}
    ]},
    {"compound": "CN[C@]1(c2ccc(F)cc2)CCCCC1=O", "note": "[Compound 2S, (S)-2-(4-fluorophenyl)-2-(methylamino)cyclohexan-1-one]", "values": [
      {"measurement": "Ki", "setting": "[3]", "result": 12, "unit": "µM"},
      {"measurement": "microsomal CLint at 1 μM", "setting": "[4]", "result": 3.5, "unit": "µL/min/mg"}
    ]}
  ]
}
